Measurements from patent publication US8889676B2, “3-ureidoisoquinolin-8-yl derivatives” (Actelion Pharmaceuticals Ltd., priority 2011, dated 2014).
≈ marks a conversion by molar mass, not a printed value.

Tested on: S. pneumoniae ATCC 49619
Experiment: Minimal inhibitory concentration (MIC) by broth microdilution (CLSI M7-A7)
Format: cell-based, Streptococcus pneumoniae
Conditions: Streptococcus pneumoniae, ATCC49619; cation-adjusted Mueller Hinton Broth supplemented with 3% (v/v) lysed horse blood; microdilution method
In short: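 Broth microdilution per CLSI M7-A7 in cation-adjusted Mueller-Hinton broth with 3% (v/v) lysed horse blood for S. pneumoniae. MIC in mg/l.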

Structure (SMILES) | MIC [µg/mL]
CCNC(=O)Nc1cc2c(-c3ccncc3)ccc(CNC(=O)OCCN3CCOCC3)c2cn1.Cl [Example 91, [3-(3-ethyl-ureido)-5-pyridin-4-yl-isoquinolin-8-ylmethyl]-carbamic acid 2-morpholin-4-yl-ethyl ester hydrochloride] | 1
CCNC(=O)Nc1cc2c(-c3ccncc3)ccc(CNC(=O)C(C)C)c2cn1 [Example 67, N-[3-(3-ethyl-ureido)-5-pyridin-4-yl-isoquinolin-8-ylmethyl]-isobutyramide] | 0.5 (≈ 1.28 µM)
CCNC(=O)Nc1cc2cccc(CNC(=O)OCc3cccnc3)c2cn1.Cl [Example 33, [3-(3-ethyl-ureido)-isoquinolin-8-ylmethyl]-carbamic acid pyridin-3-ylmethyl ester hydrochloride] | 4
CCNC(=O)Nc1cc2c(-c3ccnc(CC(=O)NC)c3)ccc(CNC(=O)OC)c2cn1 [Example 193, [3-(3-ethyl-ureido)-5-(2-(methylcarbamoyl-methyl)-pyridin-4-yl)-isoquinolin-8-ylmethyl]-carbamic acid methyl ester] | 8 (≈ 17.8 µM)
CCNC(=O)Nc1cc2c(-c3ccncc3)ccc(CNC(=O)CCN)c2cn1.Cl [Example 51, 3-amino-N-[3-(3-ethyl-ureido)-5-pyridin-4-yl-isoquinolin-8-ylmethyl]-propionamide hydrochloride] | 8
CCNC(=O)Nc1cc2c(-c3ccncc3)ccc(CNC(=O)OCCN(C)C(=O)OC(C)(C)C)c2cn1 [Example 82, tert-butyl (2-((((3-(3-ethylureido)-5-(pyridin-4-yl)isoquinolin-8-yl)methyl)carbamoyl)oxy)ethyl)(methyl)carbamate] | 2 (≈ 3.83 µM)
CCNC(=O)Nc1cc2c(-c3ccncc3)ccc(CNC(=O)OCC3CC3)c2cn1.Cl [Example 84, [3-(3-ethyl-ureido)-5-pyridin-4-yl-isoquinolin-8-ylmethyl]-carbamic acid cyclopropylmethyl ester hydrochloride] | 0.5
CCNC(=O)Nc1cc2cccc(CNC(=O)OCc3cn[nH]c3)c2cn1.Cl [Example 39, [3-(3-ethyl-ureido)-isoquinolin-8-ylmethyl]-carbamic acid 1H-pyrazol-4-ylmethyl ester hydrochloride] | 2
CCNC(=O)Nc1cc2c(-c3ccncc3)ccc(CNC(=O)OCc3cncn3C)c2cn1.Cl [Example 88, [3-(3-ethyl-ureido)-5-pyridin-4-yl-isoquinolin-8-ylmethyl]-carbamic acid 3-methyl-3H-imidazol-4-ylmethyl ester hydrochloride] | 2
CCNC(=O)Nc1cc2c(-c3ccncc3)ccc(CNC(=O)CCCN(C)C(=O)OC(C)(C)C)c2cn1 [Example 62, (3-{[3-(3-ethyl-ureido)-5-pyridin-4-yl-isoquinolin-8-ylmethyl]-carbamoyl}propyl)-methyl-carbamic acid tert-butyl ester] | 1 (≈ 1.92 µM)
CCNC(=O)Nc1cc2c(-c3ccncc3)ccc(CNC(=O)c3cn[nH]c3)c2cn1 [Example 73, 1H-pyrazole-4-carboxylic acid [3-(3-ethyl-ureido)-5-pyridin-4-yl-isoquinolin-8-ylmethyl]-amide] | 2 (≈ 4.81 µM)
CCNC(=O)Nc1cc2c(-c3ccnc(C)c3)ccc(CNC(=O)CCOC)c2cn1 [Example 157, N-[3-(3-ethyl-ureido)-5-(2-methyl-pyridin-4-yl)-isoquinolin-8-ylmethyl]-3-methoxy-propionamide] | 1 (≈ 2.37 µM)
C#CC(=O)NCc1ccc(-c2ccnnc2)c2cc(NC(=O)NCC)ncc12 [Example 129, propynoic acid [3-(3-ethyl-ureido)-5-pyridazin-4-yl-isoquinolin-8-ylmethyl]-amide] | 0.5 (≈ 1.34 µM)
CCNC(=O)Nc1cc2cccc(CNC(=O)OCc3ccncn3)c2cn1.Cl [Example 29, [3-(3-ethyl-ureido)-isoquinolin-8-ylmethyl]-carbamic acid pyrimidin-4-ylmethyl ester hydrochloride] | 4
C#CC(=O)NCc1ccc(-c2ccnc(C)c2)c2cc(NC(=O)NCC)ncc12 [Example 155, propynoic acid [3-(3-ethyl-ureido)-5-(2-methyl-pyridin-4-yl)-isoquinolin-8-ylmethyl]-amide] | 0.5 (≈ 1.29 µM)
CCNC(=O)Nc1cc2c(-c3ccnnc3)ccc(CNC(=O)OC(C)(C)C)c2cn1 [Example 124, [3-(3-ethyl-ureido)-5-pyridazin-4-yl-isoquinolin-8-ylmethyl]-carbamic acid tert-butyl ester] | 0.5 (≈ 1.18 µM)
C#CC(=O)NCc1ccc(-c2ccncc2)c2cc(NC(=O)NCC)ncc12 [Example 75, propynoic acid [3-(3-ethyl-ureido)-5-pyridin-4-yl-isoquinolin-8-ylmethyl]-amide] | 0.25 (≈ 0.669 µM)
CCNC(=O)Nc1cc2c(-c3ccnc(C)c3)ccc(CN(C)C(=O)OCCOC)c2cn1 [Example 181, [3-(3-ethyl-ureido)-5-(2-methyl-pyridin-4-yl)-isoquinolin-8-ylmethyl]-methyl-carbamic acid 2-methoxy-ethyl ester] | 8 (≈ 17.7 µM)
CCNC(=O)Nc1cc2cccc(CNC(=O)c3cn[nH]n3)c2cn1 [Example 20, 2H-[1,2,3]triazole-4-carboxylic acid [3-(3-ethyl-ureido)-isoquinolin-8-ylmethyl]-amide] | 1 (≈ 2.95 µM)

Structure (SMILES) | MIC [µg/mL]
CCNC(=O)Nc1cc2cccc(CNC(=O)OCCOC)c2cn1.Cl [Example 37, [3-(3-ethyl-ureido)-isoquinolin-8-ylmethyl]-carbamic acid 2-methoxy-ethyl ester hydrochloride] | 4
C#CCC(=O)NCc1cccc2cc(NC(=O)NCC)ncc12 [Example 1, but-3-ynoic acid [3-(3-ethyl-ureido)-isoquinolin-8-ylmethyl]-amide] | 2 (≈ 6.44 µM)
CCNC(=O)Nc1cc2c(-c3ccncc3)ccc(CNC(=O)CCCN3CCOCC3)c2cn1 [Example 147, N-[3-(3-ethyl-ureido)-5-pyridin-4-yl-isoquinolin-8-ylmethyl]-4-morpholin-4-yl-butyramide] | 4 (≈ 8.39 µM)
CCNC(=O)Nc1cc2c(-c3ccncc3)ccc(CNC(=O)CN(C)C(=O)OC(C)(C)C)c2cn1 [Example 48, ({[3-(3-ethyl-ureido)-5-pyridin-4-yl-isoquinolin-8-ylmethyl]-carbamoyl}-methyl)-methyl-carbamic acid tert-butyl ester] | 2 (≈ 4.06 µM)
CCNC(=O)Nc1cc2c(-c3ccncc3)ccc(CNC(=O)CCC(=O)OC(C)(C)C)c2cn1 [Example 46, N-[3-(3-ethyl-ureido)-5-pyridin-4-yl-isoquinolin-8-ylmethyl]-succinamic acid tert-butyl ester] | 2 (≈ 4.19 µM)
CCNC(=O)Nc1cc2cccc(CNC(=O)OC(C)C)c2cn1.Cl [Example 30, [3-(3-ethyl-ureido)-isoquinolin-8-ylmethyl]-carbamic acid isopropyl ester hydrochloride] | 4
CCNC(=O)Nc1cc2c(-c3ccncc3)ccc(CNC(=O)OCCCN(C)C)c2cn1.Cl [Example 89, [3-(3-ethyl-ureido)-5-pyridin-4-yl-isoquinolin-8-ylmethyl]-carbamic acid 3-dimethylamino-propyl ester hydrochloride] | 8
C#CCOC(=O)NCc1ccc(-c2cccc(CC(=O)O)c2)c2cc(NC(=O)NCC)ncc12.Cl [Example 135, {3-[3-(3-ethyl-ureido)-8-(prop-2-ynyloxycarbonylamino-methyl)-isoquinolin-5-yl]-phenyl}-acetic acid hydrochloride] | 4
CCNC(=O)Nc1cc2c(-c3ccncc3)ccc(CNC(=O)OCC#CCO)c2cn1 [Example 106, [3-(3-ethyl-ureido)-5-pyridin-4-yl-isoquinolin-8-ylmethyl]-carbamic acid 4-hydroxy-but-2-ynyl ester] | 0.25 (≈ 0.577 µM)
C#CCCC(=O)NCc1ccc(-c2ccncc2)c2cc(NC(=O)NCC)ncc12 [Example 69, pent-4-ynoic acid [3-(3-ethyl-ureido)-5-pyridin-4-yl-isoquinolin-8-ylmethyl]-amide] | 0.25 (≈ 0.623 µM)
C#CCOC(=O)NCc1ccc(-c2ccc(CO)nc2)c2cc(NC(=O)NCC)ncc12.Cl [Example 142, [3-(3-ethyl-ureido)-5-(6-hydroxymethyl-pyridin-3-yl)-isoquinolin-8-ylmethyl]-carbamic acid prop-2-ynyl ester hydrochloride] | 1
CCNC(=O)Nc1cc2c(-c3ccncc3)ccc(CNC(=O)c3cnc[nH]3)c2cn1 [Example 71, 3H-imidazole-4-carboxylic acid [3-(3-ethyl-ureido)-5-pyridin-4-yl-isoquinolin-8-ylmethyl]-amide] | 2 (≈ 4.81 µM)
CCNC(=O)Nc1cc2c(-c3ccnc(CC(=O)OC(C)(C)C)c3)ccc(CNC(=O)OCCOC)c2cn1 [Example 178, (4-{3-(3-ethyl-ureido)-8-[(2-methoxy-ethoxycarbonylamino)-methyl]-isoquinolin-5-yl}-pyridin-2-yl)-acetic acid tert-butyl ester] | 2 (≈ 3.72 µM)
CCNC(=O)Nc1cc2cccc(CNC(=O)c3cccnc3)c2cn1 [Example 10, N-[3-(3-ethyl-ureido)-isoquinolin-8-ylmethyl]-nicotinamide] | 4 (≈ 11.4 µM)
CCNC(=O)Nc1cc2c(-c3cc(C)nc(C)c3)ccc(CNC(=O)OC)c2cn1 [Example 164, [5-(2,6-dimethyl-pyridin-4-yl)-3-(3-ethyl-ureido)-isoquinolin-8-ylmethyl]-carbamic acid methyl ester] | 1 (≈ 2.45 µM)
CCNC(=O)Nc1cc2cccc(CNC(=O)C3CC3)c2cn1 [Example 13, cyclopropanecarboxylic acid [3-(3-ethyl-ureido)-isoquinolin-8-ylmethyl]-amide] | 2 (≈ 6.4 µM)
CCNC(=O)Nc1cc2c(-c3cc(C)ncc3F)ccc(CNC(=O)OC)c2cn1.Cl [Example 188, [3-(3-ethyl-ureido)-5-(5-fluoro-2-methyl-pyridin-4-yl)-isoquinolin-8-ylmethyl]-carbamic acid methyl ester hydrochloride] | 2
CCNC(=O)Nc1cc2c(-c3ccncc3)ccc(CNC(=O)CCOC)c2cn1 [Example 63, N-[3-(3-ethyl-ureido)-5-pyridin-4-yl-isoquinolin-8-ylmethyl]-3-methoxy-propionamide] | 1 (≈ 2.45 µM)
